The source of these data is patent US9809623B2, “α4β7 peptide monomer and dimer antagonists” (Protagonist Therapeutics, Inc., priority 2014, dated 2017).

Numbered stars: 1 amine (or outer) side, 2 acyl side, 3 side chain; on linkers, the order of the positions; unused ones are H or OH. Bridge positions count the residues as written; N and C are the ends. Square brackets hold non-standard residues; d marks the D form. Peptide text beside a SMILES is read from it. I, II: the chains in the order shown. Bip = N[C@@H](Cc1ccc(-c2ccccc2)cc1)C(=O)O; Phe(4-CN) = N#Cc1ccc(C[C@H](N)C(=O)O)cc1; 2Nal = N[C@@H](Cc1ccc2ccccc2c1)C(=O)O; Diglycolyl = O=C(COCC(=O)[*:2])[*:1]; NMeR = CN[C@@H](CCCNC(=N)N)C(=O)O; Tic = O=C(O)[C@@H]1Cc2ccccc2CN1; β3hE = N[C@@H](CCC(=O)O)CC(=O)O; NMeK = CN[C@@H](CCCCN)C(=O)O; Pen = CC(C)(S)[C@H](N)C(=O)O Bounds are passed on as bounds.

The target of the experiment is α4β7 (Homo sapiens, UniProt P13612+P26010). In words: α4β7-MAdCAM Cell Adhesion Assay (RPMI 8866 human cells). The experiment is classed as cell-based. Further details: host or cells: RPMI 8866 human B lymphoblastoid cells. The conditions noted are these: Table 3-B, Potency (α4β7); range classes; read-out: α4β7 cell (Hu) IC50. An outline of the steps: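 Adhesion read-out: MTT absorbance at 570 nm minus no-cell wells, after three washes. Plates coated with rh MAdCAM-1/Fc received peptide dilutions plus 200,000 RPMI 8866 cells in Mn2+ (1 mM)-supplemented DMEM, 0.1% BSA, HEPES pH 7, incubated 30-45 min, 37 °C.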
Chain of α4β7 (P13612 34-1032): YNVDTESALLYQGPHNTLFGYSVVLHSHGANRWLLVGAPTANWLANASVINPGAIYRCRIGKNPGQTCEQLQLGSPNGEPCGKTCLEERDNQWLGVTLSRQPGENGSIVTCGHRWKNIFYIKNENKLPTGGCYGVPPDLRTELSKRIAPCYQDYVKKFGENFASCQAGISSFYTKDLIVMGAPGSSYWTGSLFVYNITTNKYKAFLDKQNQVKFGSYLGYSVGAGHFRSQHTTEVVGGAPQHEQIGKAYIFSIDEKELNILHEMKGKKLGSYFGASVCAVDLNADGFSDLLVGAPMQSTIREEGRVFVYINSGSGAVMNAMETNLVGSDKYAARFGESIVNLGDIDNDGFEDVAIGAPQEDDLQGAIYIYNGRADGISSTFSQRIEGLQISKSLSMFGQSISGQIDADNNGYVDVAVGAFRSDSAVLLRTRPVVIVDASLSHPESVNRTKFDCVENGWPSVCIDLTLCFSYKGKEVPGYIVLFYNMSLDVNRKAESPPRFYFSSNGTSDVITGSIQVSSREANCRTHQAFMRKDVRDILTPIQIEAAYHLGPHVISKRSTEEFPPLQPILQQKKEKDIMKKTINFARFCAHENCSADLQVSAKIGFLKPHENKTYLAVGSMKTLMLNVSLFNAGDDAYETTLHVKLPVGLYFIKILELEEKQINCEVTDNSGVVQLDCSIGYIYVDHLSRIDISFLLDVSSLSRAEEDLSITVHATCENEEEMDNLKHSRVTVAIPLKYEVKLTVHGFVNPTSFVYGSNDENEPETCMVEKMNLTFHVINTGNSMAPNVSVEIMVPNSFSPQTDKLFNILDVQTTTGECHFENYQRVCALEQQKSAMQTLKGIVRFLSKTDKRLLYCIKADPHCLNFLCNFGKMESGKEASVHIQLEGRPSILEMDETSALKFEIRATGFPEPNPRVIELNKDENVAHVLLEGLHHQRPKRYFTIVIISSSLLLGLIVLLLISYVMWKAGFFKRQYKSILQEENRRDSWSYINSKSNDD
Chain of α4β7 (P26010 20-798): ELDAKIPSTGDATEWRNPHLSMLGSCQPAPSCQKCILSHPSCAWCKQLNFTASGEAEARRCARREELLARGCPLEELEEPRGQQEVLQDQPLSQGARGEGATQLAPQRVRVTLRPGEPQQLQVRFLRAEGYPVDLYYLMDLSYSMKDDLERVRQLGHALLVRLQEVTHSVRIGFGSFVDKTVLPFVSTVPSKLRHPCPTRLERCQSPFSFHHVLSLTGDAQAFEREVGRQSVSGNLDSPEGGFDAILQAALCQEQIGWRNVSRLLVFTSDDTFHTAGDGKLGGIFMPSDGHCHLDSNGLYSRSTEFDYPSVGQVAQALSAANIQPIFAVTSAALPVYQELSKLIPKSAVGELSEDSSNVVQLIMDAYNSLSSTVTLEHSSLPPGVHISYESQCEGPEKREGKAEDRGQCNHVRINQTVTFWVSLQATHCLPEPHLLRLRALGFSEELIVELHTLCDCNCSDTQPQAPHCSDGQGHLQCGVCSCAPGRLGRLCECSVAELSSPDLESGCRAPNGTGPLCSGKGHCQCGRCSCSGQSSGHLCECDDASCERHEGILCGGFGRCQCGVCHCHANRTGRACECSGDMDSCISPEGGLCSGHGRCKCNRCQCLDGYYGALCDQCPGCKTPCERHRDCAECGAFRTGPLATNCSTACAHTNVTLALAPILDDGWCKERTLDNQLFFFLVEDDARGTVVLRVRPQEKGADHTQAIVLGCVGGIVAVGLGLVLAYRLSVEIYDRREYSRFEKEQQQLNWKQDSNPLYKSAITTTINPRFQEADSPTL
For the molecule `CC(=O)N[C@@H]1C(=O)N(C)[C@@H](CCCNC(=N)N)C(=O)N[C@@H](CO)C(=O)N[C@@H](CC(=O)O)C(=O)N[C@@H]([C@@H](C)O)C(=O)N[C@@H](CC(C)C)C(=O)N[C@H](C(=O)N[C@@H](Cc2ccc3ccccc3c2)C(=O)N[C@H](Cc2c[nH]cn2)C(=O)N[C@H](CCCCNC(=O)COCC(=O)NCCCC[C@@H](NC(=O)[C@@H](Cc2c[nH]cn2)NC(=O)[C@H](Cc2ccc3ccccc3c2)NC(=O)[C@H]2NC(=O)[C@H](CC(C)C)NC(=O)[C@H]([C@@H](C)O)NC(=O)[C@H](CC(=O)O)NC(=O)[C@H](CO)NC(=O)[C@H](CCCNC(=N)N)N(C)C(=O)[C@@H](NC(C)=O)C(C)(C)SSC2(C)C)C(N)=O)C(N)=O)C(C)(C)SSC1(C)C` [compound 118] (I: Ac-[Pen][NMeR]SDTL[Pen][2Nal][dH][dK]-NH2 / II: Ac-[Pen][NMeR]SDTL[Pen][2Nal][dH][dK]-NH2; disulfide I:1-I:7, II:1-II:7; linker I:10-II:10 via Diglycolyl), the IC50 was 25 to 50 nM.
To `CC(=O)N[C@@H]1C(=O)N(C)[C@@H](CCCNC(=N)N)C(=O)N[C@@H](CO)C(=O)N[C@@H](CC(=O)O)C(=O)N[C@@H]([C@@H](C)O)C(=O)N[C@@H](CC(C)C)C(=O)N[C@H](C(=O)N[C@@H](Cc2ccc3ccccc3c2)C(=O)N[C@H](CC(C)C)C(=O)N[C@H](CCCCNC(=O)COCC(=O)NCCCC[C@@H](NC(=O)[C@@H](CC(C)C)NC(=O)[C@H](Cc2ccc3ccccc3c2)NC(=O)[C@H]2NC(=O)[C@H](CC(C)C)NC(=O)[C@H]([C@@H](C)O)NC(=O)[C@H](CC(=O)O)NC(=O)[C@H](CO)NC(=O)[C@H](CCCNC(=N)N)N(C)C(=O)[C@@H](NC(C)=O)C(C)(C)SSC2(C)C)C(N)=O)C(N)=O)C(C)(C)SSC1(C)C` [compound 119] (I: Ac-[Pen][NMeR]SDTL[Pen][2Nal][dL][dK]-NH2 / II: Ac-[Pen][NMeR]SDTL[Pen][2Nal][dL][dK]-NH2; disulfide I:1-I:7, II:1-II:7; linker I:10-II:10 via Diglycolyl) belongs 500 to 1000 nM.
To `CC(=O)N[C@@H]1C(=O)N(C)[C@@H](CCCNC(=N)N)C(=O)N[C@@H](CO)C(=O)N[C@@H](CC(=O)O)C(=O)N[C@@H]([C@@H](C)O)C(=O)N[C@@H](CC(C)C)C(=O)N[C@H](C(=O)N[C@@H](Cc2ccc3ccccc3c2)C(=O)N[C@H](CCCNC(=N)N)C(=O)N[C@H](CCCCNC(=O)COCC(=O)NCCCC[C@@H](NC(=O)[C@@H](CCCNC(=N)N)NC(=O)[C@H](Cc2ccc3ccccc3c2)NC(=O)[C@H]2NC(=O)[C@H](CC(C)C)NC(=O)[C@H]([C@@H](C)O)NC(=O)[C@H](CC(=O)O)NC(=O)[C@H](CO)NC(=O)[C@H](CCCNC(=N)N)N(C)C(=O)[C@@H](NC(C)=O)C(C)(C)SSC2(C)C)C(N)=O)C(N)=O)C(C)(C)SSC1(C)C` [compound 120] (I: Ac-[Pen][NMeR]SDTL[Pen][2Nal][dR][dK]-NH2 / II: Ac-[Pen][NMeR]SDTL[Pen][2Nal][dR][dK]-NH2; disulfide I:1-I:7, II:1-II:7; linker I:10-II:10 via Diglycolyl) belongs 1000 to 10000 nM.
The value for `CC(=O)N[C@@H]1C(=O)N(C)[C@@H](CCCNC(=N)N)C(=O)N[C@@H](CO)C(=O)N[C@@H](CC(=O)O)C(=O)N[C@@H]([C@@H](C)O)C(=O)N[C@@H](CC(C)C)C(=O)N[C@H](C(=O)N[C@@H](Cc2ccc3ccccc3c2)C(=O)N2Cc3ccccc3C[C@H]2C(=O)N[C@H](CCCCNC(=O)COCC(=O)NCCCC[C@@H](NC(=O)[C@@H]2Cc3ccccc3CN2C(=O)[C@H](Cc2ccc3ccccc3c2)NC(=O)[C@H]2NC(=O)[C@H](CC(C)C)NC(=O)[C@H]([C@@H](C)O)NC(=O)[C@H](CC(=O)O)NC(=O)[C@H](CO)NC(=O)[C@H](CCCNC(=N)N)N(C)C(=O)[C@@H](NC(C)=O)C(C)(C)SSC2(C)C)C(N)=O)C(N)=O)C(C)(C)SSC1(C)C` [compound 121] (I: Ac-[Pen][NMeR]SDTL[Pen][2Nal][Tic][dK]-NH2 / II: Ac-[Pen][NMeR]SDTL[Pen][2Nal][Tic][dK]-NH2; disulfide I:1-I:7, II:1-II:7; linker I:10-II:10 via Diglycolyl) was 100 to 500 nM.
As for `CC(=O)N[C@@H]1C(=O)N(C)[C@@H](CCCNC(=N)N)C(=O)N[C@@H](CO)C(=O)N[C@@H](CC(=O)O)C(=O)N[C@@H]([C@@H](C)O)C(=O)N[C@@H](CC(C)C)C(=O)N[C@H](C(=O)N[C@@H](Cc2ccc(O)cc2)C(=O)N[C@H](CCC(=O)O)C(=O)N[C@H](CCCCNC(=O)COCC(=O)NCCCC[C@@H](NC(=O)[C@@H](CCC(=O)O)NC(=O)[C@H](Cc2ccc(O)cc2)NC(=O)[C@H]2NC(=O)[C@H](CC(C)C)NC(=O)[C@H]([C@@H](C)O)NC(=O)[C@H](CC(=O)O)NC(=O)[C@H](CO)NC(=O)[C@H](CCCNC(=N)N)N(C)C(=O)[C@@H](NC(C)=O)C(C)(C)SSC2(C)C)C(N)=O)C(N)=O)C(C)(C)SSC1(C)C` [compound 123] (I: Ac-[Pen][NMeR]SDTL[Pen]Y[dE][dK]-NH2 / II: Ac-[Pen][NMeR]SDTL[Pen]Y[dE][dK]-NH2; disulfide I:1-I:7, II:1-II:7; linker I:10-II:10 via Diglycolyl), the IC50 is 50 to 100 nM.
The value for `CC(=O)N[C@@H]1C(=O)N(C)[C@@H](CCCNC(=N)N)C(=O)N[C@@H](CO)C(=O)N[C@@H](CC(=O)O)C(=O)N[C@@H]([C@@H](C)O)C(=O)N[C@@H](CC(C)C)C(=O)N[C@H](C(=O)N[C@@H](Cc2c[nH]cn2)C(=O)N[C@H](CCC(=O)O)C(=O)N[C@H](CCCCNC(=O)COCC(=O)NCCCC[C@@H](NC(=O)[C@@H](CCC(=O)O)NC(=O)[C@H](Cc2c[nH]cn2)NC(=O)[C@H]2NC(=O)[C@H](CC(C)C)NC(=O)[C@H]([C@@H](C)O)NC(=O)[C@H](CC(=O)O)NC(=O)[C@H](CO)NC(=O)[C@H](CCCNC(=N)N)N(C)C(=O)[C@@H](NC(C)=O)C(C)(C)SSC2(C)C)C(N)=O)C(N)=O)C(C)(C)SSC1(C)C` [compound 124] (I: Ac-[Pen][NMeR]SDTL[Pen]H[dE][dK]-NH2 / II: Ac-[Pen][NMeR]SDTL[Pen]H[dE][dK]-NH2; disulfide I:1-I:7, II:1-II:7; linker I:10-II:10 via Diglycolyl) was 100 to 500 nM; that for `CC(=O)N[C@@H]1C(=O)N(C)[C@@H](CCCNC(=N)N)C(=O)N[C@@H](CO)C(=O)N[C@@H](CC(=O)O)C(=O)N[C@@H]([C@@H](C)O)C(=O)N[C@@H](CC(C)C)C(=O)N[C@H](C(=O)N[C@@H](Cc2ccc(-c3ccccc3)cc2)C(=O)N[C@@H](CCC(=O)O)CC(=O)N[C@H](CCCCNC(=O)COCC(=O)NCCCC[C@@H](NC(=O)C[C@H](CCC(=O)O)NC(=O)[C@H](Cc2ccc(-c3ccccc3)cc2)NC(=O)[C@H]2NC(=O)[C@H](CC(C)C)NC(=O)[C@H]([C@@H](C)O)NC(=O)[C@H](CC(=O)O)NC(=O)[C@H](CO)NC(=O)[C@H](CCCNC(=N)N)N(C)C(=O)[C@@H](NC(C)=O)C(C)(C)SSC2(C)C)C(N)=O)C(N)=O)C(C)(C)SSC1(C)C` [compound 135] (I: Ac-[Pen][NMeR]SDTL[Pen][Bip][β3hE][dK]-NH2 / II: Ac-[Pen][NMeR]SDTL[Pen][Bip][β3hE][dK]-NH2; disulfide I:1-I:7, II:1-II:7; linker I:10-II:10 via Diglycolyl) was less than 10 nM.
To `CC(=O)N[C@@H]1C(=O)N(C)[C@@H](CCCNC(=N)N)C(=O)N[C@@H](CO)C(=O)N[C@@H](CC(=O)O)C(=O)N[C@@H]([C@@H](C)O)C(=O)N[C@@H](CC(C)C)C(=O)N[C@H](C(=O)N[C@@H](Cc2ccc(-c3ccccc3)cc2)C(=O)N[C@@H](CCC(=O)O)C(=O)N(C)[C@@H](CCCCNC(=O)COCC(=O)NCCCC[C@@H](C(N)=O)N(C)C(=O)[C@H](CCC(=O)O)NC(=O)[C@H](Cc2ccc(-c3ccccc3)cc2)NC(=O)[C@H]2NC(=O)[C@H](CC(C)C)NC(=O)[C@H]([C@@H](C)O)NC(=O)[C@H](CC(=O)O)NC(=O)[C@H](CO)NC(=O)[C@H](CCCNC(=N)N)N(C)C(=O)[C@@H](NC(C)=O)C(C)(C)SSC2(C)C)C(N)=O)C(C)(C)SSC1(C)C` [compound 136] (I: Ac-[Pen][NMeR]SDTL[Pen][Bip]E[NMeK]-NH2 / II: Ac-[Pen][NMeR]SDTL[Pen][Bip]E[NMeK]-NH2; disulfide I:1-I:7, II:1-II:7; linker I:10-II:10 via Diglycolyl) belongs less than 10 nM; to `CC(=O)N[C@@H]1C(=O)N(C)[C@@H](CCCNC(=N)N)C(=O)N[C@@H](CO)C(=O)N[C@@H](CC(=O)O)C(=O)N[C@@H]([C@@H](C)O)C(=O)N[C@@H](CC(C)C)C(=O)N[C@H](C(=O)N[C@@H](Cc2ccc(C#N)cc2)C(=O)N[C@@H](CCC(=O)O)CC(=O)N[C@H](CCCCNC(=O)COCC(=O)NCCCC[C@@H](NC(=O)C[C@H](CCC(=O)O)NC(=O)[C@H](Cc2ccc(C#N)cc2)NC(=O)[C@H]2NC(=O)[C@H](CC(C)C)NC(=O)[C@H]([C@@H](C)O)NC(=O)[C@H](CC(=O)O)NC(=O)[C@H](CO)NC(=O)[C@H](CCCNC(=N)N)N(C)C(=O)[C@@H](NC(C)=O)C(C)(C)SSC2(C)C)C(N)=O)C(N)=O)C(C)(C)SSC1(C)C` [compound 139] (I: Ac-[Pen][NMeR]SDTL[Pen][Phe(4-CN)][β3hE][dK]-NH2 / II: Ac-[Pen][NMeR]SDTL[Pen][Phe(4-CN)][β3hE][dK]-NH2; disulfide I:1-I:7, II:1-II:7; linker I:10-II:10 via Diglycolyl), less than 10 nM.
The value for `CC(=O)N[C@@H]1C(=O)N(C)[C@@H](CCCNC(=N)N)C(=O)N[C@@H](CO)C(=O)N[C@@H](CC(=O)O)C(=O)N[C@@H]([C@@H](C)O)C(=O)N[C@@H](CC(C)C)C(=O)N[C@H](C(=O)N[C@@H](Cc2ccc3ccccc3c2)C(=O)N[C@@H](C(=O)N[C@H](CCCCNC(=O)COCC(=O)NCCCC[C@@H](NC(=O)[C@H](NC(=O)[C@H](Cc2ccc3ccccc3c2)NC(=O)[C@H]2NC(=O)[C@H](CC(C)C)NC(=O)[C@H]([C@@H](C)O)NC(=O)[C@H](CC(=O)O)NC(=O)[C@H](CO)NC(=O)[C@H](CCCNC(=N)N)N(C)C(=O)[C@@H](NC(C)=O)C(C)(C)SSC2(C)C)[C@H](C)O)C(N)=O)C(N)=O)[C@H](C)O)C(C)(C)SSC1(C)C` [compound 140] (I: Ac-[Pen][NMeR]SDTL[Pen][2Nal][dT][dK]-NH2 / II: Ac-[Pen][NMeR]SDTL[Pen][2Nal][dT][dK]-NH2; disulfide I:1-I:7, II:1-II:7; linker I:10-II:10 via Diglycolyl) was 10 to 25 nM.

Broadly, the IC50 is the concentration that gives 50% inhibition.
